In ChEMBL document CHEMBL1136542, “Discovery of N-hydroxy-2-(2-oxo-3-pyrrolidinyl)acetamides as potent and selective inhibitors of tumor necrosis factor-alpha converting enzyme (TACE)” (Bioorg Med Chem Lett, 2003):

Columns and labels:
[1] = target: Disintegrin and metalloproteinase domain-containing protein 17 (Homo sapiens, UniProt P78536); experiment: Inhibition of TNF-alpha production from LPS stimulated human whole blood.; type: functional, tissue-based
Interstitial collagenase = target: T1, Interstitial collagenase (Homo sapiens, UniProt P03956); experiment: In vitro inhibition of Matrix metalloprotease-1.
T1 sequence (P03956 whole entry): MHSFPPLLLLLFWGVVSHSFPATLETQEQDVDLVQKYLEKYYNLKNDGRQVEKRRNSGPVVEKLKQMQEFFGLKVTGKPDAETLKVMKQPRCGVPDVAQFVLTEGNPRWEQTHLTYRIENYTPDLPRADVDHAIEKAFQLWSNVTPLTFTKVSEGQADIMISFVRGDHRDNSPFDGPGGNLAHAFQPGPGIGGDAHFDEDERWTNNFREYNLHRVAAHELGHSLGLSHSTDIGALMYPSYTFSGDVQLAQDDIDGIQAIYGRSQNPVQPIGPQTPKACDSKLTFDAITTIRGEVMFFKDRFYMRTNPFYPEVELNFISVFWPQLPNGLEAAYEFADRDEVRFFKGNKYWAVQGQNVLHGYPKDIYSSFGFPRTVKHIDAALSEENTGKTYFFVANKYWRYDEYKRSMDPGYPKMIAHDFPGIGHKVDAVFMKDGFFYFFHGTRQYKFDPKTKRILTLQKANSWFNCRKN

[2] = target: Disintegrin and metalloproteinase domain-containing protein 17 (Sus scrofa, UniProt O77636); experiment: In vitro inhibition of TNF-alpha converting enzyme.
Chain of Disintegrin and metalloproteinase domain-containing protein 17 (Sus scrofa, UniProt O77636) (O77636 whole entry, the tested form may be a part): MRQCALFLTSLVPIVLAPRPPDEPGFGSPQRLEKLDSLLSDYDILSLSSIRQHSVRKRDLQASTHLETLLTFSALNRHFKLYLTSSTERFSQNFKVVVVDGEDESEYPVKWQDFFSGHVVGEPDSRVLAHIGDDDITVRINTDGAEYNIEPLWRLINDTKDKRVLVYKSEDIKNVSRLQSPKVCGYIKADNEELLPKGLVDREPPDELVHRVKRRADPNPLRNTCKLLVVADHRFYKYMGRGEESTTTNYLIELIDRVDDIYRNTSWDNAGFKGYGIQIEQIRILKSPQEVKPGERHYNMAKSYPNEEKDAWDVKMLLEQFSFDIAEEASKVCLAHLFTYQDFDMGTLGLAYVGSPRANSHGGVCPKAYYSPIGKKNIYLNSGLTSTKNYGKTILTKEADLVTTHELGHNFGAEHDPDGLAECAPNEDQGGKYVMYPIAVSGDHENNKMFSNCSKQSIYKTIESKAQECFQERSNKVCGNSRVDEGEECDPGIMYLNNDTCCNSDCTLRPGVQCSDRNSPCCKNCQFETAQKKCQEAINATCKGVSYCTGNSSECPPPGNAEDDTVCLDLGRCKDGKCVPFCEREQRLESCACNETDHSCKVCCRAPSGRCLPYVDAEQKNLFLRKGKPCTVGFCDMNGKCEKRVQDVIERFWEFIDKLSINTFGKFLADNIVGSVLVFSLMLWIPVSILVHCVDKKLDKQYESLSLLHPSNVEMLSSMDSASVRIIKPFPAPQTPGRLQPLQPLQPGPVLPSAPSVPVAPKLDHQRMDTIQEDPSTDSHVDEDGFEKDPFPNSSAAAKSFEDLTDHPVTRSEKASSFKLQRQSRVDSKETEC

[3] = target: 72 kDa type IV collagenase (Homo sapiens, UniProt P08253)
Chain of 72 kDa type IV collagenase (P08253 whole entry): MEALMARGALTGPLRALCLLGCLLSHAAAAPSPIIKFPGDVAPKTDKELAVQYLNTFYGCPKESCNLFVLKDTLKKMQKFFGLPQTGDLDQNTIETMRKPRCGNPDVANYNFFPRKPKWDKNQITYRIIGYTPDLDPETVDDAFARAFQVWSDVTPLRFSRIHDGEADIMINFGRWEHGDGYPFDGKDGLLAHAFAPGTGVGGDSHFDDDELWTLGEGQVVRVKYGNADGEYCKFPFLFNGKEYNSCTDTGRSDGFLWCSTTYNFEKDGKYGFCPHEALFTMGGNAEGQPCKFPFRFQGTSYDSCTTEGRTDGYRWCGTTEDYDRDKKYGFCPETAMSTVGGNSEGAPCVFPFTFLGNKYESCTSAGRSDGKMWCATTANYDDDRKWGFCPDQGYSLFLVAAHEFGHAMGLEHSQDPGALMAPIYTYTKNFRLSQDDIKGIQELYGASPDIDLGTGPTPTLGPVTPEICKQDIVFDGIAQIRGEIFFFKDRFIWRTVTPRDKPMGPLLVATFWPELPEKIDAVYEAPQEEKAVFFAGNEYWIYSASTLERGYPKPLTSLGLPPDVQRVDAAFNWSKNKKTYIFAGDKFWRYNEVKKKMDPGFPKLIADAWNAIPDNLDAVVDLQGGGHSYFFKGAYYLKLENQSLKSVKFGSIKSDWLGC
Description: In vitro inhibition of Matrix metalloprotease-2

[4] = target: Matrix metalloproteinase-9 (Homo sapiens, UniProt P14780); experiment: In vitro inhibition of Matrix metalloprotease-9
Chain of Matrix metalloproteinase-9 (P14780 whole entry): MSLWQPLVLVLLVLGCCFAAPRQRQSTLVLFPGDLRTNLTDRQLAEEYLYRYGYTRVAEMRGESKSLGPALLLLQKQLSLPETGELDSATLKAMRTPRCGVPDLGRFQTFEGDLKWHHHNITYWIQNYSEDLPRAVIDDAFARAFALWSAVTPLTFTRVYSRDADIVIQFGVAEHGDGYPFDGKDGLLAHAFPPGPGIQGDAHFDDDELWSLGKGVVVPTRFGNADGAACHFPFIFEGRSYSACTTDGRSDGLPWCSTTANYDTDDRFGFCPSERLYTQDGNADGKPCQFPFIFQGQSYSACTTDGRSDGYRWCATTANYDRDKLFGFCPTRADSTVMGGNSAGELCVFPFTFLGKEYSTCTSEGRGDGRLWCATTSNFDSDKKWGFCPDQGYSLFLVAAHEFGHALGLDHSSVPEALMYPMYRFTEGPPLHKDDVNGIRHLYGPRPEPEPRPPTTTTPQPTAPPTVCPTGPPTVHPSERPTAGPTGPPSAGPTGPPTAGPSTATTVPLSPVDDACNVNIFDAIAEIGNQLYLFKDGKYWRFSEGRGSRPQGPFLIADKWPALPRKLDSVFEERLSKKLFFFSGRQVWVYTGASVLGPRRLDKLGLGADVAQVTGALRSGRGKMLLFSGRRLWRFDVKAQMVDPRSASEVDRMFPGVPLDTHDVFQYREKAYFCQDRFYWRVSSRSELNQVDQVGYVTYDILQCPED

Chain of Disintegrin and metalloproteinase domain-containing protein 17 (Homo sapiens, UniProt P78536) (P78536 whole entry, the tested form may be a part): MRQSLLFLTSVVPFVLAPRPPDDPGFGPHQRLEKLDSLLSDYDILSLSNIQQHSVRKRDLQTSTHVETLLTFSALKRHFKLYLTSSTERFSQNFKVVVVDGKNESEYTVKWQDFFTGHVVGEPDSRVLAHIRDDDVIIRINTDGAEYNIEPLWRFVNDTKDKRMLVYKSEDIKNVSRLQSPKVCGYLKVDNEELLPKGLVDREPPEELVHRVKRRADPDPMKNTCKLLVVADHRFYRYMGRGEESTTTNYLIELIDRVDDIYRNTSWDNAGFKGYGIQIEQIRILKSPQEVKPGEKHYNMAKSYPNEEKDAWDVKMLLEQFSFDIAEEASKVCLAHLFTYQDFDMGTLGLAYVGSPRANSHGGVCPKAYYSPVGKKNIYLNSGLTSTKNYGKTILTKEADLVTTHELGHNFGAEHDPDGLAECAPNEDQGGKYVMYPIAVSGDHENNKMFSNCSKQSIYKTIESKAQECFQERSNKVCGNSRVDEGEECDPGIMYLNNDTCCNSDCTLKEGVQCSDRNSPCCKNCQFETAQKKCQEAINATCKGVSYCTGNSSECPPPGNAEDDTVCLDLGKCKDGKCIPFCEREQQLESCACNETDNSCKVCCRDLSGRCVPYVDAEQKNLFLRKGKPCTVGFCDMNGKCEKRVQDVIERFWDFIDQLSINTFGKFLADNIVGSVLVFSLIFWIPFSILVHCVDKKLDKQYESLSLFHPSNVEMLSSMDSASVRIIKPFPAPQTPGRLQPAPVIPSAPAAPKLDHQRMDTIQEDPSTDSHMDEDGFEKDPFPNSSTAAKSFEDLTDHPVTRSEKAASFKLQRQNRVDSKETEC

| IC50 [1] [µM] | Ki (Interstitial collagenase) [µM] | IC50 [2] [µM] | Ki [3] [µM] | Ki [4] [µM] | SMILES |
| --- | --- | --- | --- | --- | --- |
| 4.8 | > 5 | 0.005 | > 3 | > 2 | Cc1cc(COc2ccc(N3CC[C@](N)(CC(=O)NO)C3=O)cc2)c2ccccc2n1 |
| 9.1 | > 5 | 0.001 | 0.435 | > 2 | Cc1cc(COc2ccc(N3CC[C@H]([C@H](NC(=O)c4ccccc4)C(=O)NO)C3=O)cc2)c2ccccc2n1 |
| > 10 | > 5 | 0.05 | > 3 | > 2 | Cc1cc(COc2ccc(N3CC[C@H]([C@H](N)C(=O)NO)C3=O)cc2)cc(C)n1 |
| 1.1 | > 5 | 0.002 | > 3 | > 2 | Cc1cc(COc2ccc(N3CC[C@](N)([C@H](C)C(=O)NO)C3=O)cc2)c2ccccc2n1 |
|  | > 5 | 0.14 | > 3 | > 2 | CCC[C@@H](C(=O)NO)[C@H]1CCN(c2ccc(OCc3cc(C)nc4ccccc34)cc2)C1=O |
| 6.83 | > 1.63 | 0.002 | > 0.305 | > 2 | CCCCOC(=O)N[C@H](C(=O)NO)[C@H]1CCN(c2ccc(OCc3cc(C)nc4ccccc34)cc2)C1=O |
| > 3 | > 5 | 0.004 | > 3 | > 2 | CCC[C@H](C(=O)NO)[C@@]1(N)CCN(c2ccc(OCc3cc(C)nc4ccccc34)cc2)C1=O |
| > 10 | > 5 | 0.405 | > 3 | > 2 | CCC[C@@H](C(=O)NO)[C@@]1(N)CCN(c2ccc(OCc3cc(C)nc4ccccc34)cc2)C1=O |
| 4.95 | > 5 | < 0.001 | 1.24 | > 2 | Cc1cc(COc2ccc(N3CC[C@H]([C@H](NC(=O)C(C)(C)C)C(=O)NO)C3=O)cc2)c2ccccc2n1 |
| > 3 | > 5 | 0.052 | > 3 | > 2 | Cc1cc(COc2ccc(N3CC[C@H]([C@@H](C)C(=O)NO)C3=O)cc2)c2ccccc2n1 |
| 1.56 | > 5 | 0.001 | 0.194 | > 2 | CC(=O)N[C@H](C(=O)NO)[C@H]1CCN(c2ccc(OCc3cc(C)nc4ccccc34)cc2)C1=O |
| 1.57 | > 5 | 0.001 | > 1.27 | > 2 | Cc1cc(COc2ccc(N3CC[C@H]([C@H](C)C(=O)NO)C3=O)cc2)c2ccccc2n1 |
| 2.4 | > 5 | 0.003 | > 3 | > 2 | Cc1cc(COc2ccc(N3CC[C@H]([C@H](O)C(=O)NO)C3=O)cc2)c2ccccc2n1 |

The next lines start with the compound.

| SMILES | IC50 [1] [µM] | Ki (Interstitial collagenase) [µM] | IC50 [2] [µM] | Ki [3] [µM] | Ki [4] [µM] |
| --- | --- | --- | --- | --- | --- |
| Cc1cc(COc2ccc(N3CC[C@H]([C@H](NC(=O)OC(C)(C)C)C(=O)NO)C3=O)cc2)cc(C)n1 | > 3 | 2.24 | 0.006 | > 3 |  |
| Cc1cc(COc2ccc(N3CC[C@H]([C@@H](C(=O)NO)N4CCCC4)C3=O)cc2)c2ccccc2n1 | > 10 | > 5 | 0.026 | > 3 | > 2 |
| Cc1cc(COc2ccc(N3CC[C@H]([C@@H](C(=O)NO)N(C)C)C3=O)cc2)c2ccccc2n1 | 1.5 | > 5 | 0.007 | > 3 | > 2 |
| Cc1cc(COc2ccc(N3CC[C@H]([C@H](NC(=O)OC(C)(C)C)C(=O)NO)C3=O)cc2)c2ccccc2n1 | 0.42 | 0.788 | 0.001 | 0.324 | 0.291 |
| Cc1cc(COc2ccc(N3CC[C@@]([C@H](C)C(=O)NO)(N(C)C)C3=O)cc2)c2ccccc2n1 | > 3 | > 5 | 0.012 |  | 1.3 |
| COC(=O)N[C@H](C(=O)NO)[C@H]1CCN(c2ccc(OCc3cc(C)nc4ccccc34)cc2)C1=O | 2.65 | > 5 | < 0.001 | 0.482 | > 2 |
| C[C@@H]([C@H]1CCN(c2ccc(OCc3ccccc3)cc2)C1=O)N(O)C=O | > 10 | > 5 | 0.111 | > 0.567 | > 2 |
| Cc1cc(COc2ccc(N3CC[C@H]([C@H](NC(=O)N4CCOCC4)C(=O)NO)C3=O)cc2)c2ccccc2n1 | 0.84 | > 5 | < 0.001 | 0.805 | > 2 |
| Cc1cc(COc2ccc(N3CC[C@H]([C@H](C)N(O)C=O)C3=O)cc2)c2ccccc2n1 | 8.7 | > 5 | 0.002 | > 3 | > 2 |
| Cc1cc(COc2ccc(N3CC[C@H]([C@H](N)C(=O)NO)C3=O)cc2)c2ccccc2n1 | 1.7 | > 5 | 0.002 | 0.446 | 1.96 |
